Assay results reported in PMC11274883, “Anticancer Effect of Pt^[sequence], Pt^II5MESS, Pt^II56MESS and Their Platinum(IV)-Dihydroxy Derivatives against Triple-Negative Breast Cancer and Cisplatin-Resistant Colorectal Cancer” (Cancers, 2024).

How the values were obtained:
Assay type in all cases: cell-based
[1] = test system: HT29 cells; assay: Cellular uptake of Pt by ICP-MS; details: for Intracellular Concentration: HT29, 3 µM; for Intracellular/extracellular ratio: HT29, extracellular 3 µM
Experimental: (§1) A final concentration of 10^6 cells/well of MDA−MB−231 and HT29 cells were seeded in 6-well plates and incubated overnight to adhere. The cells were then treated with a final concentration of 3 µM of either Pt^II or Pt^IV complexes. After 0, 0.5, 1, 3, 6, 12, 24 or 30 h, the medium was removed, and the cells were washed three times with cold PBS and allowed to dry. Then, 400 µL of 69% HNO3 (Baseline grade nitric acid with PPB level reported impurities, Seastar Chemicals, Sidney, BC, Canada) was added to each well for 90 min to ensure complete digestion. […] Iridium 193 (^193Ir) was mixed online and introduced into the ICP-MS to check uptake efficiency and matrix interference. All ICP-MS parameters are described in Table S2 and elaborated in Method S3. The results represent an average of three different experiments run in triplicate (±SEM) and expressed as nmol/10^6 cells or µM/cell. Quantification of the cellular uptake of Pt was based on external standards (Certified Standard from Sigma-Aldrich, VIC, Australia) containing Internal standard Ir.
(§2) Method S3. Cellular Uptake of Platinum(II) and (IV) complexes
(§3) A final concentration of 10^6 cells/well of MDA−MB−231 and HT29 cells were seeded in 6-well plates and incubated overnight to adhere. The cells were then treated with a final concentration of 3 µM of either PtII or PtIV complexes. After 0, 0.5, 1, 3, 6, 12, 24 or 30 h, the medium was removed, and the cells were washed three times with cold PBS and allowed to dry. Then, 400 µL of 69% HNO3 (Baseline grade nitric acid with Instrument Quality Grade Nitric acid with ppb level reported impurities, Seastar Chemicals, Sidney, Canada) was added to each well for 90 mins to ensure complete digestion. The digests were then moved to trace -metal free 15 mL centrifuge tubes […]
(§4) concentration of 3.5-4%. Iridium 193 (193Ir), selected as internal standard, has similar first ionisation potential and mass to Platinum 195 (195Pt). A concentration of 50 ppb 193Ir in 2% HNO3 solution was chosen for the Perkin Elmer NexION® Inductively Coupled Plasma Mass Spectrometer (ICP-MS) as it produced a steady state signal intensity of 600-800K counts per second. Mixing and injection of sample and internal standard solution was carried out using an ESI 7 port Valve system (Elemental Scientific, USA). A high-quality Solvent Flex 2 stop pump with 0.38 mm ID tubing was used in conjunction with the ICP-MS’s Peristaltic pump set at 20 […]
(§5) standard both, at 0.25 mL/min) being 0.5 mL/min. The ICP-MS was tuned to high sensitivity settings to facilitate detection of low Pt concentrations in samples. This was done by adjusting the nebuliser gas flow between […] to achieve maximum Indium 115 intensity whilst maintaining an acceptable average oxide and doubly charged ratio of 1.64-2.24% and 1.17-1.69% respectively. The analysis method was set to peak hopping mode with a dwell time of […] and 45 sweeps through the mass spectrum per sample read. […]
(§6) peak integration time of 4500 milliseconds and enabled the collection of numerous data points for peak integration thereby increasing accuracy. The ICP-MS was tuned daily, and its performance optimised to a set of suppliers recommended settings. Analysis was only carried out when optimal oxide and doubly charged ratios with high ionic sensitivity was achieved. All ICP-MS parameters are described in Table S2. The results represent an average of three different experiments run in triplicates (± SEM) and expressed as nmol/106 cells or µM/cell. Quantification of the cellular uptake of Pt was based on external standards (Certified Standard from Sigma-Aldrich NSW, Australia) containing Internal standard Ir. […]

[2] = test system: MDA−MB−231 cells; assay: Cellular uptake of Pt by ICP-MS; details: for Intracellular Concentration: MDA−MB−231, 3 µM; for Intracellular/extracellular ratio: MDA−MB−231, extracellular 3 µM
Experimental: as §1, §2, §3, §4, §5, §6

[3] = test system: MCF10A; assay: WST-1 cytotoxicity, 72 h; details: mean ± SEM
Experimental: Cells were seeded in 96-well flat-bottom culture plates at a concentration of 1000 cells per well. […] After 72 h, the medium was removed and replaced with new medium. The cell viability reagent WST-1 (10 µL, Roche Diagnostics, Indianapolis, IN, USA) was added to each well. After an hour, the absorbance was measured at 450 nm using a versatile microplate reader (Bio-strategy, Campbellfield, VIC, Australia). Three separate experiments were performed, each with n = 3 replicates. GraphPad prism 10 was used to calculate apparent IC50 values using the nonlinear regression model Y = Bottom + (Top-Bottom)/(1 + 10^(X-LogIC50)) where Top and bottom are plateaus in the y-axis (% survival). The R^2 value of the curve fits ranged from 0.8972 to 0.9794.

## Cc1cc2cccnc2c2ncccc12.N[C@H]1CCCC[C@@H]1N.O=[N+]([O-])[O-].O=[N+]([O-])[O-].[OH][Pt+2][OH] [Pt^IV5MESS(OH)2, [Pt(5-methyl-1,10-phenanthroline)(1S,2S-diaminocyclohexane)(dihydroxy)](NO3)2]
[1]; 0 h
  Intracellular Concentration: 0.15 nmol/10^6 cells
  Intracellular/extracellular ratio: 25.03
[1]; 0.5 h
  Intracellular Concentration: 0.17 nmol/10^6 cells
  Intracellular/extracellular ratio: 26.29
[1]; 1 h
  Intracellular Concentration: 0.28 nmol/10^6 cells
  Intracellular/extracellular ratio: 44.59
[1]; 3 h
  Intracellular Concentration: 0.33 nmol/10^6 cells
  Intracellular/extracellular ratio: 52.25
[1]; 6 h
  Intracellular Concentration: 0.66 nmol/10^6 cells
  Intracellular/extracellular ratio: 104.08
[1]; 12 h
  Intracellular Concentration: 5.05 nmol/10^6 cells
  Intracellular/extracellular ratio: 793.61
[1]; 24 h
  Intracellular Concentration: 7.37 nmol/10^6 cells
  Intracellular/extracellular ratio: 1158.37
[1]; 30 h
  Intracellular Concentration: 7.85 nmol/10^6 cells
  Intracellular/extracellular ratio: 1234.08
[2]; 0 h
  Intracellular Concentration: 0.16 nmol/10^6 cells
  Intracellular/extracellular ratio: 26.14
[2]; 0.5 h
  Intracellular Concentration: 0.22 nmol/10^6 cells
  Intracellular/extracellular ratio: 35.23
[2]; 1 h
  Intracellular Concentration: 0.17 nmol/10^6 cells
  Intracellular/extracellular ratio: 27.69
[2]; 3 h
  Intracellular Concentration: 0.25 nmol/10^6 cells
  Intracellular/extracellular ratio: 40.45
[2]; 6 h
  Intracellular Concentration: 0.29 nmol/10^6 cells
  Intracellular/extracellular ratio: 46.47
[2]; 12 h
  Intracellular Concentration: 1.19 nmol/10^6 cells
  Intracellular/extracellular ratio: 186.97
[2]; 24 h
  Intracellular Concentration: 1.31 nmol/10^6 cells
  Intracellular/extracellular ratio: 205.97
[2]; 30 h
  Intracellular Concentration: 2.37 nmol/10^6 cells
  Intracellular/extracellular ratio: 371.97
[3]
  IC50: 12.2 ± 1.48 µM

## Cc1c(C)c2cccnc2c2ncccc12.N[C@H]1CCCC[C@@H]1N.O=[N+]([O-])[O-].O=[N+]([O-])[O-].[OH][Pt+2][OH] [Pt^IV56MESS(OH)2, [Pt(5,6-dimethyl-1,10-phenanthroline)(1S,2S-diaminocyclohexane)(dihydroxy)](NO3)2]
[1]; 0 h
  Intracellular Concentration: 0.14 nmol/10^6 cells
  Intracellular/extracellular ratio: 21.81
[1]; 0.5 h
  Intracellular Concentration: 0.18 nmol/10^6 cells
  Intracellular/extracellular ratio: 28.52
[1]; 1 h
  Intracellular Concentration: 0.28 nmol/10^6 cells
  Intracellular/extracellular ratio: 43.51
[1]; 3 h
  Intracellular Concentration: 0.42 nmol/10^6 cells
  Intracellular/extracellular ratio: 66.77
[1]; 6 h
  Intracellular Concentration: 1.74 nmol/10^6 cells
  Intracellular/extracellular ratio: 273.54
[1]; 12 h
  Intracellular Concentration: 5.43 nmol/10^6 cells
  Intracellular/extracellular ratio: 854.01
[1]; 24 h
  Intracellular Concentration: 9.14 nmol/10^6 cells
  Intracellular/extracellular ratio: 1435.74
[1]; 30 h
  Intracellular Concentration: 9.98 nmol/10^6 cells
  Intracellular/extracellular ratio: 1568.28
[2]; 0 h
  Intracellular Concentration: 0.14 nmol/10^6 cells
[2]; 0.5 h
  Intracellular Concentration: 0.11 nmol/10^6 cells
  Intracellular/extracellular ratio: 50.71
[2]; 1 h
  Intracellular Concentration: 0.05 nmol/10^6 cells
  Intracellular/extracellular ratio: 26.14
[2]; 3 h
  Intracellular Concentration: 0.25 nmol/10^6 cells
  Intracellular/extracellular ratio: 117.57
[2]; 6 h
  Intracellular Concentration: 0.30 nmol/10^6 cells
  Intracellular/extracellular ratio: 142.93
[2]; 12 h
  Intracellular Concentration: 1.16 nmol/10^6 cells
  Intracellular/extracellular ratio: 548.82
[2]; 24 h
  Intracellular Concentration: 2.74 nmol/10^6 cells
  Intracellular/extracellular ratio: 1293.81
[2]; 30 h
  Intracellular Concentration: 4.19 nmol/10^6 cells
[3]
  IC50: 4.91 ± 1.45 µM

## N[C@H]1CCCC[C@@H]1N.O=[N+]([O-])[O-].O=[N+]([O-])[O-].[OH-].[OH-].[Pt+4].c1cnc2c(c1)ccc1cccnc12 [[Pt(1,10-phenanthroline)(1S,2S-diaminocyclohexane)(dihydroxy)](NO3)2]
[1]; 0 h
  Intracellular Concentration: 0.10 nmol/10^6 cells
  Intracellular/extracellular ratio: 16.45
[1]; 0.5 h
  Intracellular Concentration: 0.10 nmol/10^6 cells
  Intracellular/extracellular ratio: 15.93
[1]; 1 h
  Intracellular Concentration: 0.18 nmol/10^6 cells
  Intracellular/extracellular ratio: 28.08
[1]; 3 h
  Intracellular Concentration: 0.33 nmol/10^6 cells
  Intracellular/extracellular ratio: 51.34
[1]; 6 h
  Intracellular Concentration: 0.77 nmol/10^6 cells
  Intracellular/extracellular ratio: 121.19
[1]; 12 h
  Intracellular Concentration: 3.64 nmol/10^6 cells
  Intracellular/extracellular ratio: 571.26
[1]; 24 h
  Intracellular Concentration: 5.18 nmol/10^6 cells
  Intracellular/extracellular ratio: 813.09
[1]; 30 h
  Intracellular Concentration: 5.79 nmol/10^6 cells
  Intracellular/extracellular ratio: 909.81
[2]; 0 h
  Intracellular Concentration: 0.13 nmol/10^6 cells
  Intracellular/extracellular ratio: 21.21
[2]; 0.5 h
  Intracellular Concentration: 0.13 nmol/10^6 cells
  Intracellular/extracellular ratio: 20.07
[2]; 1 h
  Intracellular Concentration: 0.223 nmol/10^6 cells
  Intracellular/extracellular ratio: 35.47
[2]; 3 h
  Intracellular Concentration: 0.16 nmol/10^6 cells
  Intracellular/extracellular ratio: 26.14
[2]; 6 h
  Intracellular Concentration: 0.25 nmol/10^6 cells
  Intracellular/extracellular ratio: 38.82
[2]; 12 h
  Intracellular Concentration: 0.63 nmol/10^6 cells
  Intracellular/extracellular ratio: 98.56
[2]; 24 h
  Intracellular Concentration: 0.78 nmol/10^6 cells
  Intracellular/extracellular ratio: 123.87
[2]; 30 h
  Intracellular Concentration: 1.29 nmol/10^6 cells
  Intracellular/extracellular ratio: 203.38
[3]
  IC50: 20.5 ± 1.32 µM
